Target: mTORC2 (Homo sapiens, UniProt P42345+P62942)
Test: mTORC2 inhibition in PC3 cells, AlphaLISA of pAKT pS473 levels

Chain of mTORC2 (P62942 2-108 limits assumed, other chains not shown): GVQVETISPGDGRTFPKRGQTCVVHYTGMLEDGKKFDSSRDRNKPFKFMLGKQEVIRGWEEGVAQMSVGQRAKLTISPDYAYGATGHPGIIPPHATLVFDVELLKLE

Structure (SMILES): CO[C@H]1C[C@@H]2CC[C@@H](C)[C@@](O)(O2)C(=O)C(=O)N2CCCC[C@H]2C(=O)O[C@H]([C@H](C)C[C@@H]2CC[C@@H](OCCO)[C@H](OC)C2)CC(=O)[C@H](C)/C=C(\C)[C@@H](O)[C@@H](OC)C(=O)[C@H](C)C[C@H](C)/C=C/C=C/C=C/1C [everolimus]
- IC50: < 10 nM
